Target: T1, androgen receptor (Rattus norvegicus, UniProt P15207)
T1 construct: from tissue; host or cells: prostate cytosol (209,000 g supernatant) of male Sprague Dawley rats castrated 24 hours previously
T1 sequence (P15207 1-902): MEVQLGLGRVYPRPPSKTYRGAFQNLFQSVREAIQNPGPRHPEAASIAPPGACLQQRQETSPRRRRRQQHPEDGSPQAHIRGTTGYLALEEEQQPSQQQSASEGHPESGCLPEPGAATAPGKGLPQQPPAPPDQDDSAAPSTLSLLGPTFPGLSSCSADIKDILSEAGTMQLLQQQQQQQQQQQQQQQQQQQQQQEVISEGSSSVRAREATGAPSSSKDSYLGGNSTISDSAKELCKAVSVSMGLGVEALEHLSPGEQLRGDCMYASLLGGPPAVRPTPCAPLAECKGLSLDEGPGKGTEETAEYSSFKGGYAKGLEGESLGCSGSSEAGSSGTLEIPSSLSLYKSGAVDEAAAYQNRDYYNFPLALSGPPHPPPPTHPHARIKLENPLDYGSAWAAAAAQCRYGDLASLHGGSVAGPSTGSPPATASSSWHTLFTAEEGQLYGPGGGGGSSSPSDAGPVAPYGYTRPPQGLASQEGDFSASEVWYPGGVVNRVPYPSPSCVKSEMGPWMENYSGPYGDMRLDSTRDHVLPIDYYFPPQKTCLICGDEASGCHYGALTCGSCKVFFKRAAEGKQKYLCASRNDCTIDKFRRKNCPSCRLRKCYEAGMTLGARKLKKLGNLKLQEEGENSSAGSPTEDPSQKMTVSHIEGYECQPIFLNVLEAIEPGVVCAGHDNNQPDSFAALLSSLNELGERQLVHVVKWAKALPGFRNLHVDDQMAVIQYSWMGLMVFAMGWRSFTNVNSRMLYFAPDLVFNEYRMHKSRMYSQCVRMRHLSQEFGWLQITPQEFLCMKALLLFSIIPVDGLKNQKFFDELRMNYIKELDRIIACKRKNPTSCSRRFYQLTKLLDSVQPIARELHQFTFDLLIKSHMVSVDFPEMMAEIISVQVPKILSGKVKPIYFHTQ
Experiment: Affinity of the products for the androgen receptor (relative bond affinity, displacement of tritiated testosterone in prostate cytosol)
Type: binding
Description: Study of the affinity of the products for the androgen receptor
Calculation of the relative bond affinity (RBA).
The following 2 curves were drawn: the percentage of bound tritiated hormone B/T as a function of the logarithm of the concentration of the unlabelled reference hormone and B/T as a function of the logarithm of the concentration of the unlabelled tested product. The straight line of the equation I50 =(B/Tmax+B/Tmin)/2 was determined.
B/T max=% of the bound tritiated hormone for an incubation of this tritiated hormone at the concentration (T).
B/T min=% of the bound tritiated hormone for an incubation of this tritiated hormone at the concentration (T) in the presence of a large excess of unlabelled hormone (2500.10^-9 M).
The intersections of the straight line I50 and the curves allowed the evaluation of the concentrations of the unlabelled reference hormone (CH) and of the tested unlabelled product (CX) which inhibit by 50% the binding of the tritiated hormone on the receptor.

Row | SMILES | RBA: Incubation 24 hours
1 | N#Cc1ccc(N2C(=O)N(CCCCO)C3(CCOCC3)C2=O)cc1C(F)(F)F [Example 3, 4-(2,4-dioxo-1-(4-hydroxybutyl)-8-oxa-1,3-diazaspiro[4.5]decan-3-yl)-2-(trifluoromethyl)-benzonitrile] | 6
2 | N#CCN1C(=O)N(c2ccc(C#N)c(C(F)(F)F)c2)C(=O)C12CCOCC2 [Example 10, 3-(4-cyano-3-(trifluoromethyl)-phenyl)-2,4-dioxo-8-oxa-1,3-diazaspiro[4.5]decan-1-acetonitrile] | 5

Reference: patent US5646172A, “Method of inducing antiandrogenic activity using imidazolidines substituted with a heterocycle” (Roussel Uclaf, priority 1994, dated 1997)
